Results reported in patent publication US8329676B2, “Cycloalkane-containing sphingosine 1-phosphate agonists” (University of Virginia Patent Foundation, priority 2005, dated 2012).

Key:
blood lymphocytes = experiment: Lymphopenia assay; assay type: in vivo, mice
Method: Pro-drug compounds (i.e., primary alcohols such as VPC01091) are dissolved in 2% hydroxypropyl beta-cyclodextrin and introduced into mice by oral gavage at doses from 0.01 to 30 mg/kg body weight. After 24 hours (or multiples thereof), the mice are lightly anesthetized and ca. 0.1 ml of blood is drawn from the orbital sinus. The number of lymphocytes (in thousands per microliter of blood; normal is 4-11) is determined using a Hemavet blood analyzer. In the histogram showing the four isomers of VPC01091, the 100% value for the vehicle treated mouse was 7.5 at 24 hours; at 96 hours it was 5. There were three mice/group, the strain was mixed sv129×C57BL/6. Active compounds (e.g., VPC01211) are dissolved in acidified DMSO at 20 mM, and diluted 1:20 into 2% hydroxypropyl beta-cyclodextrin in water with mixing. This solution is introduced into mice by intraperitoneal (i.p.) injection at doses of 0.01-10 mg/kg body weight.
FIG. 3 describes total blood lymphocyte count following single dose of VPC01091 or vehicle. […] Five mice per group, male, 10-11 week old sv129/C57B16 strain.
A dose response curve for VPC01091 in the lymphopenia assay is given as FIG. 4. FIG. 4 graphically summarizes oral administration (gavage) of VPC01091 in 2% hydroxypropyl beta-cyclodextrin, 3 mice per group (same strain as in FIG. 3).
This phosphorylation of these compounds is thought to be catalyzed in vivo by sphingosine kinase type 2 (SPHK2), which is encoded by the SPHK2 gene in mice.

Heart rate assay = assay type: in vivo; conditions: mice, intravenous, 3 mg/kg (FIG. 2)
Method: In the assay the test compound was administered via IV Dosing and the vehicle was 2% cyclodextrin.
Mice were dosed with VPC01091 (intravenous, 3 mg/kg) or vehicle (2% hydroxypropyl beta-cyclodextrin) and heart rate measured at the indicated times post dosing. Heart rate was captured in unrestrained, conscious animals using the ECGenie™ system.

human S1P1 receptor = molecular target: T1, human S1P1 receptor (Homo sapiens, UniProt P21453); experiment: GTPγS-35 binding assay, S1P1; assay type: biochemical; conditions: relative to S1P (FIG. 6)
T1 construct: expressed in transfected cells; host or cells: HEK293T (crude microsomes)
T1 sequence (P21453 whole entry): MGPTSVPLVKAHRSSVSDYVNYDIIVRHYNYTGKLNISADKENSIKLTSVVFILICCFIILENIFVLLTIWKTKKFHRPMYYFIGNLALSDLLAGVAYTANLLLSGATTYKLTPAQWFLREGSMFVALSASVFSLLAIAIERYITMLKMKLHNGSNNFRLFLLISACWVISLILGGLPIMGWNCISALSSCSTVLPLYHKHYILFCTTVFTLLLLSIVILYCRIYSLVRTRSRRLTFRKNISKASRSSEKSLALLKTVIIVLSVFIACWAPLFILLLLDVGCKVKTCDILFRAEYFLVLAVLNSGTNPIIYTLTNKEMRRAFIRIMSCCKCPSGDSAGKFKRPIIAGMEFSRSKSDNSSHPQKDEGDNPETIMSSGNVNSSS
T1 sequence (P04899 2-355 partner limits assumed): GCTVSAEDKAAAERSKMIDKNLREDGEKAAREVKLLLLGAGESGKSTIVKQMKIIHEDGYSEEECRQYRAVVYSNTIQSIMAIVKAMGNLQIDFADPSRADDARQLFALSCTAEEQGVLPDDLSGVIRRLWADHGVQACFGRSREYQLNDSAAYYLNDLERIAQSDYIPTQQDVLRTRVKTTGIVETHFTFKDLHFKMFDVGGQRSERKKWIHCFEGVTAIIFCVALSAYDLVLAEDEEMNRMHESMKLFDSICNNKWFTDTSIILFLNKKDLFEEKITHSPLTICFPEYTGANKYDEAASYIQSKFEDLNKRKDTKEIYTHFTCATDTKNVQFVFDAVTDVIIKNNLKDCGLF
T1 sequence (P62873 2-340 partner limits assumed): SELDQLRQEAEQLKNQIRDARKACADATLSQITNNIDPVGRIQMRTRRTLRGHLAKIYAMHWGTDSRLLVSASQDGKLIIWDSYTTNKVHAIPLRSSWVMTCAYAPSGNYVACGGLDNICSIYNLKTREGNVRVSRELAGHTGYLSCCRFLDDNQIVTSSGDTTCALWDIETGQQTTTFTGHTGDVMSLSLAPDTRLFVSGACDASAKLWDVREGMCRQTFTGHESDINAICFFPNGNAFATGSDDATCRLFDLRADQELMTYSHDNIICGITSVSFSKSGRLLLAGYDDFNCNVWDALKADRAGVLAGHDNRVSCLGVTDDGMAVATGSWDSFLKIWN
T1 sequence (P59768 2-68 partner limits assumed): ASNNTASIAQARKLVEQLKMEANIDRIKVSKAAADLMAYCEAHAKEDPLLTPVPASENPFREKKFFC
Method: This assay illustrates agonist activation of G protein coupled receptors (GPCRs) in isolation. The assay forces expression concomitantly of a recombinant GPCR (e.g., the S1P1-5 receptor) and each of the three subunits (typically, alphai2, beta1, gamma2) of a heterotrimeric G protein in a HEK293T cell by transfecting the cell with four plasmid DNAs encoding the respective proteins. About 60 hours after transfection the cells are harvested, opened, and the nucleus discarded. This allows for the preparation of a crude microsome from the remainder. Agonist (e.g., S1P) stimulation of the receptor-G protein complex on the microsomes results in the exchange of GTP for GDP on the alpha subunit in a dose-dependent manner. To detect the GTP-bound alpha subunit, we use a GTP analog (GTPγS-35), which is a radionuclide (sulfur-35) labeled phosphothionate, that is not hydrolyzed to GDP. The microsomes with the adherent G proteins are collected by filtration and the bound GTPγS-35 quantified in a liquid scintillation counter. […] Antagonist activity is detected as rightward shifts in the agonist dose-response curve in the presence of a fixed amount of antagonist. If the antagonist behaves competitively, the affinity of the receptor/antagonist pair (K1) can be determined.

[1] = molecular target: T2, human S1P type 3 (S1P3) receptor (Homo sapiens, UniProt Q99500); experiment: GTPγS-35 binding assay, S1P3; assay type: biochemical
T2 construct: expressed in transfected cells; host or cells: HEK293T (crude microsomes)
T2 sequence (Q99500 whole entry): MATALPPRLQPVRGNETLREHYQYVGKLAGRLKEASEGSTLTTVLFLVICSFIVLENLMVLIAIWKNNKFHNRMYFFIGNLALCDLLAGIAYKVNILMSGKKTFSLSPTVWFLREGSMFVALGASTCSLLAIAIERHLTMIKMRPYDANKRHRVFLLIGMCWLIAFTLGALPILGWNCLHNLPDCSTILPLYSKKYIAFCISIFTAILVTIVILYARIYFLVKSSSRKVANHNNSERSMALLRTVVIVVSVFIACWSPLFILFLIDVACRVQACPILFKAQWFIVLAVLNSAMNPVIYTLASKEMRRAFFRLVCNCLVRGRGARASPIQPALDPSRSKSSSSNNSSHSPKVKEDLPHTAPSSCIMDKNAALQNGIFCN
Method: The assay forces expression concomitantly of a recombinant GPCR (e.g., the S1P1-5 receptor) and each of the three subunits (typically, alphai2, beta1, gamma2) of a heterotrimeric G protein in a HEK293T cell by transfecting the cell with four plasmid DNAs encoding the respective proteins. About 60 hours after transfection the cells are harvested, opened, and the nucleus discarded. This allows for the preparation of a crude microsome from the remainder. Agonist (e.g., S1P) stimulation of the receptor-G protein complex on the microsomes results in the exchange of GTP for GDP on the alpha subunit in a dose-dependent manner. To detect the GTP-bound alpha subunit, we use a GTP analog (GTPγS-35), which is a radionuclide (sulfur-35) labeled phosphothionate, that is not hydrolyzed to GDP. The microsomes with the adherent G proteins are collected by filtration and the bound GTPγS-35 quantified in a liquid scintillation counter. The assay yields relative potency (EC50 values) and maximum effect (efficacy, Emax). Antagonist activity is detected as rightward shifts in the agonist dose-response curve in the presence of a fixed amount of antagonist. If the antagonist behaves competitively, the affinity of the receptor/antagonist pair (K1) can be determined.

human S1P4 receptor = molecular target: T3, human S1P4 receptor (Homo sapiens, UniProt O95977); experiment: GTPγS-35 binding assay, S1P4; assay type: biochemical; conditions: FIG. 10
T3 construct: expressed in transfected cells; host or cells: HEK293T (crude microsomes)
T3 sequence (O95977 whole entry): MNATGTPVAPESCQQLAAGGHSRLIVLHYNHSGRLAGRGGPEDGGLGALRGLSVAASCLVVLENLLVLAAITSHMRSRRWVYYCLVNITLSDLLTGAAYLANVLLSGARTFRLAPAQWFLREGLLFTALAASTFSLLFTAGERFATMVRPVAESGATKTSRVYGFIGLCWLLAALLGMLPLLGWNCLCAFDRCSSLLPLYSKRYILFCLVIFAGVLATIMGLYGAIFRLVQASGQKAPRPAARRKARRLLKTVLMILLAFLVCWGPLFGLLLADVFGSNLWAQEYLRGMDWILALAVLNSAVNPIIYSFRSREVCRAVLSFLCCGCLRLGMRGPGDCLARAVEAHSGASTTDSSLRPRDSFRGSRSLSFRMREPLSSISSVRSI
T3 sequence (P04899 2-355 partner limits assumed): as the sequence (P04899 2-355 partner limits assumed) above
T3 sequence (P62873 2-340 partner limits assumed): as the sequence (P62873 2-340 partner limits assumed) above
T3 sequence (P59768 2-68 partner limits assumed): as the sequence (P59768 2-68 partner limits assumed) above
Description: (§1) FIG. 10 graphically illustrates the results of a broken cell GTPγ^35S binding assay for the human S1P4 receptor. Compound ‘CA5-P’ is VPC01211. Compounds CA6-P and CA4-P are the corresponding cyclohexyl and cyclobutyl compounds.
(§2) This assay illustrates agonist activation of G protein coupled receptors (GPCRs) in isolation. The assay forces expression concomitantly of a recombinant GPCR (e.g., the S1P1-5 receptor) and each of the three subunits (typically, alphai2, beta1, gamma2) of a heterotrimeric G protein in a HEK293T cell by transfecting the cell with four plasmid DNAs encoding the respective proteins. About 60 hours after transfection the cells are harvested, opened, and the nucleus discarded. This allows for the preparation of a crude microsome from the remainder. Agonist (e.g., S1P) stimulation of the receptor-G protein complex on the microsomes results in the exchange of GTP for GDP on the alpha subunit in a dose-dependent manner. […] The microsomes with the adherent G proteins are collected by filtration and the bound GTPγS-35 quantified in a liquid scintillation counter. […] Antagonist activity is detected as rightward shifts in the agonist dose-response curve in the presence of a fixed amount of antagonist. If the antagonist behaves competitively, the affinity of the receptor/antagonist pair (K1) can be determined.

human S1P5 receptor = molecular target: T4, human S1P5 receptor (Homo sapiens, UniProt Q9H228); experiment: GTPγS-35 binding assay, S1P5; assay type: biochemical; conditions: FIG. 11
T4 construct: expressed in transfected cells; host or cells: HEK293T (crude microsomes)
T4 sequence (Q9H228 whole entry): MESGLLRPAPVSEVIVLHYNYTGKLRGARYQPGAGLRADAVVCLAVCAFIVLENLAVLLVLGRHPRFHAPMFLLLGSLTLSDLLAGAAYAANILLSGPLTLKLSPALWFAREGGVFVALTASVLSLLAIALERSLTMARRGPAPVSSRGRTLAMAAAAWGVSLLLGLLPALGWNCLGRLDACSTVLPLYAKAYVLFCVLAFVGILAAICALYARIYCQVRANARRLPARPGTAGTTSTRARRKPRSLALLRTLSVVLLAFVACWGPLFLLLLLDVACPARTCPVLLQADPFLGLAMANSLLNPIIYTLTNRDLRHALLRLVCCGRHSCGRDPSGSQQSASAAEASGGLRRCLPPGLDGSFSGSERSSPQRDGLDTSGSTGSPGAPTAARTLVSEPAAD
T4 sequence (P04899 2-355 partner limits assumed): as the sequence (P04899 2-355 partner limits assumed) above
T4 sequence (P62873 2-340 partner limits assumed): as the sequence (P62873 2-340 partner limits assumed) above
T4 sequence (P59768 2-68 partner limits assumed): as the sequence (P59768 2-68 partner limits assumed) above
Description: FIG. 11 graphically illustrates the results of a broken cell GTPγ^35S binding assay for the human S1P5 receptor. Compound ‘CA5-P’ is VPC01211. Compounds CA6-P and CA4-P are the corresponding cyclohexyl and cyclobutyl compounds.
as §2

human S1P3 receptor [2] = molecular target: T5, human S1P3 receptor (Homo sapiens, UniProt Q99500); experiment: Calcium mobilization assay in T24 cells overexpressing S1P3; assay type: cell-based; parameters: expressed in transfected cells; conditions: 10 μM test compound, FIG. 15
T5 sequence (Q99500 whole entry): as the sequence (Q99500 whole entry) above
Method: FIG. 15 is an illustration of the result of a calcium mobilization assay in T24 cells overexpressing the human S1P3 receptor in response to […] S1P in the presence of 10 μM VPC01211.

human S1P2 receptor [3] = molecular target: T6, human S1P2 receptor (Homo sapiens, UniProt O95136); experiment: GTPγS-35 binding assay, S1P2; assay type: biochemical; parameters: expressed in transfected cells; host or cells: HEK293T (crude microsomes); conditions: FIG. 8
T6 sequence (O95136 whole entry): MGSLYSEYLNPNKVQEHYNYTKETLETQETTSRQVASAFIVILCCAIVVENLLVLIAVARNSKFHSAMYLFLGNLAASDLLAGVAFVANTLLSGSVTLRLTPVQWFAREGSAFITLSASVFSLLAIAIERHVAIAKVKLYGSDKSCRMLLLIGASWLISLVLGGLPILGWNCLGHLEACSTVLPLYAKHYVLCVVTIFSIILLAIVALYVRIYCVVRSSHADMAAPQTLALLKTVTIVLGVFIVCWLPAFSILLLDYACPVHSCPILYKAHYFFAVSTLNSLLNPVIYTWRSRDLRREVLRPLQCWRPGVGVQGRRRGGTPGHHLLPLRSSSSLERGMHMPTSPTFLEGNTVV
Description: as §1, with “8” for “10”, “S1P2” for “S1P4”, “compounds. The ordinate represents percent GTPγ^35S binding and the abscissa represents log molar concentration of lipid.” for “compounds.”
as §2, with “remainder.” for “remainder. Agonist (e.g., S1P) stimulation of the receptor-G protein complex on the microsomes results in the exchange of GTP for GDP on the alpha subunit in a dose-dependent manner.”

human S1P2 receptor [4] = molecular target: T6, human S1P2 receptor; experiment: Calcium mobilization assay, CHO-K1 cells expressing S1P2; assay type: cell-based; parameters: expressed in transfected cells; host or cells: hamster CHO-K1, clonal population; conditions: FIG. 7
Method: FIG. 7 graphically illustrates the results of a calcium mobilization assay using CHO-K1 cells expressing recombinant human S1P2 receptor. […] The ordinate represents percent maximal calcium mobilization and the abscissa represents log molar concentration of lipid.
(§3) To measure calcium mobilization in response to agonist stimulation, cells were plated onto a 96 well plate, loaded with the calcium sensing dye Fluo-4AM and cells exposed to various concentrations of agonist for 3-5 minutes. Changes in fluorescence, which correlate with intracellular calcium mobilization, are detected using a FlexStation fluorimeter. Each agonist concentration was tested in triplicate.
FIG. 7: CHOK1 cells transfected with S1P2 receptor DNA

human S1P3 receptor [5] = molecular target: T5, human S1P3 receptor; experiment: Calcium mobilization assay, CHO-K1 cells expressing S1P3; assay type: cell-based; parameters: expressed in transfected cells; host or cells: hamster CHO-K1, clonal population; conditions: FIG. 9
Method: FIG. 9 graphically illustrates the results of a calcium mobilization assay using CHO-K1 cells expressing recombinant human S1P3 receptor.
as §3

human S1P3 receptor [6] = molecular target: T5, human S1P3 receptor; experiment: Schild plot of S1P dose response curves at S1P3; assay type: biochemical; parameters: expressed in transfected cells; host or cells: hamster CHO-K1, clonal population; conditions: FIGS. 12-14
Description: FIG. 12 is an illustration of a Schild plot for the results of S1P dose response curves at the human S1P3 receptor, at the indicated concentrations of test compound VPC01222.
FIG. 13 is an illustration of a Schild plot for the results of S1P dose response curves at the human S1P3 receptor, at the indicated concentrations of test compound VPC01211.
FIG. 14 is an illustration of a Schild plot for the results of S1P dose response curves at the human S1P3 receptor, at the indicated concentrations of test compound VPC01214.
as §2, with “discarded.” for “discarded. This allows for the preparation of a crude microsome from the remainder. Agonist (e.g., S1P) stimulation of the receptor-G protein complex on the microsomes results in the exchange of GTP for GDP on the alpha subunit in a dose-dependent manner.”

| SMILES | lymphopenia (total blood lymphocyte count) (blood lymphocytes; mice, oral gavage, single dose, 2% hydroxypropyl beta-cyclodextrin (FIG. 3)) | duration of lymphopenia (blood lymphocytes; mice, single ED95 dose) | lymphopenia in mice without a functional SPHK2 gene (blood lymphocytes; single oral dose, 24 hours (FIG. 5)) | effect on heart rate (Heart rate assay) | agonist activity at the S1P1 receptor (human S1P1 receptor) | activity at the S1P3 receptor (GTPγS binding) [1] | agonist activity at the S1P4 receptor (human S1P4 receptor) | agonist activity at the S1P5 receptor (human S1P5 receptor) | antagonism at S1P3 (rightward shift of S1P calcium response) (human S1P3 receptor [2]) | activity at the S1P2 receptor (GTPγS binding) (human S1P2 receptor [3]) | activity at the S1P2 receptor (calcium mobilization) (human S1P2 receptor [4]) | activity at the S1P3 receptor (calcium mobilization) (human S1P3 receptor [5]) | antagonism at S1P3 (rightward shifts in the S1P dose response curves) (human S1P3 receptor [6]) |
| --- | --- | --- | --- | --- | --- | --- | --- | --- | --- | --- | --- | --- | --- |
| CCCCCCCCc1ccc(C2CCC(N)(CO)C2)cc1 (stereo not shown) [VPC01091, (1-amino-3-(4-octylphenyl)cyclopentyl)methanol] | profound, long lasting lymphopenia | lymphopenia for a week or more | no lymphopenia was observed | no effect on the heart rate | – | – | – | – | – | – | – | – | – |
| CCCCCCCCc1ccc(C2CCC(N)(COP(=O)(O)O)C2)cc1 (stereo not shown) [VPC01211, (1-amino-3-(4-octylphenyl)cyclopentyl)methyl dihydrogen phosphate] | – | – | – | – | partial agonists | negative, or inverse, agonists | full agonists | partial agonists | surmountable antagonism | inactive | inactive | inactive | surmountable antagonist |
